Where “and” joins values, the source holds several entries; their conditions need not be identical. Equal entries are not always repeated.
Experiments:
[1] = In vivo biodistribution in mice bearing LNCaP95 and PC3 xenografts; set-up: species or system male castrated NOD/SCID mice
[2] = target: T1, recombinant full-length AR (Homo sapiens, UniProt P10275); assay: Cell-free binding to recombinant full-length AR; conditions: 16 hours at room temperature
T1 sequence (P10275 1-920): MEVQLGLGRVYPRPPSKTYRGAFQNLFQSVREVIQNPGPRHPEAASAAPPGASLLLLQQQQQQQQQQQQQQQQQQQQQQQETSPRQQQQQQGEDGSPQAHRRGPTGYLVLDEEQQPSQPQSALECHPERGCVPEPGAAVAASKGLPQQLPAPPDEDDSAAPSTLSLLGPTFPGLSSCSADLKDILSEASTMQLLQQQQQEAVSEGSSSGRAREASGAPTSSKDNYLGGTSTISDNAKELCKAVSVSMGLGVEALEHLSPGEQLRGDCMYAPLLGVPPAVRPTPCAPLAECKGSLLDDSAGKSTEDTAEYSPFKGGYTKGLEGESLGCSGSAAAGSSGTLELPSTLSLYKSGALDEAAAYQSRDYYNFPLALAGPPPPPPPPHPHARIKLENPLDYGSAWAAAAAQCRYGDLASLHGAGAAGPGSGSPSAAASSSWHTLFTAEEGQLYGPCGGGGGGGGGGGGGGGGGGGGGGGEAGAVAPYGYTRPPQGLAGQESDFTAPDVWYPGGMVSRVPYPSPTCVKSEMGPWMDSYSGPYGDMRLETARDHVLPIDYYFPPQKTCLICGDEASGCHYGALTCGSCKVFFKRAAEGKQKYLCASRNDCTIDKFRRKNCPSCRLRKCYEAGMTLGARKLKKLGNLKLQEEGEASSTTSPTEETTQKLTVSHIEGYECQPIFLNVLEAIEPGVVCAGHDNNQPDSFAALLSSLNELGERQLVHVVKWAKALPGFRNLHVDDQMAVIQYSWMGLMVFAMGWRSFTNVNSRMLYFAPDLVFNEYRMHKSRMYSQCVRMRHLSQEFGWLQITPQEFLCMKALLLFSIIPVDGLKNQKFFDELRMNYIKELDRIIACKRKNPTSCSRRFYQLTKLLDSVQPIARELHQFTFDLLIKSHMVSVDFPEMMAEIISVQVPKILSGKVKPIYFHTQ

[3] = Micro-SPECT/CT imaging of mice bearing LNCaP95 and PC3 xenografts; assay type: in vivo, male castrated NOD/SCID mice
endogenous AR = assay: Binding to endogenous AR in LNCaP95 cells; assay type: cell-based, human; conditions: 16 hours
[4] = Biodistribution with blocking by excess cold EPI-002; assay type: in vivo, male castrated NOD/SCID mice; conditions: excess cold EPI-002 50 mg/kg body weight; 1 hour

Bladder uptake ([1]; 0 h after injection): 0.79 ± 0.49 %ID/g
Blood uptake ([1]; 0 h after injection): 12.57 ± 2.03 %ID/g
Bone uptake ([1]; 0 h after injection): 1.09 ± 0.75 %ID/g
Brain uptake ([1]; 0 h after injection): 1.29 ± 0.55 %ID/g
Heart uptake ([1]; 0 h after injection): 7.62 ± 1.86 %ID/g
Kidney uptake ([1]; 0 h after injection): 5.57 ± 2.37 %ID/g
Large intestine uptake ([1]; 0 h after injection): 0.70 ± 0.42 %ID/g
Liver uptake ([1]; 0 h after injection): 5.03 ± 3.29 %ID/g
Lung uptake ([1]; 0 h after injection): 5.19 ± 1.59 %ID/g
Muscle uptake ([1]; 0 h after injection): 1.60 ± 1.89 %ID/g
Negative tumor (PC3) uptake ([1]; 0 h after injection): 0.19 ± 0.06 %ID/g
Positive tumor (LNCaP95) uptake ([1]; 0 h after injection): 0.17 ± 0.06 %ID/g
Ratio LNCaP95/PC3 ([1]; 0 h after injection): 0.9
Ratio LNCaP95/blood ([1]; 0 h after injection): 0.01
Ratio LNCaP95/kidney ([1]; 0 h after injection): 0.03
Ratio LNCaP95/liver ([1]; 0 h after injection): 0.04
Ratio LNCaP95/muscle ([1]; 0 h after injection): 0.22
Small intestine uptake ([1]; 0 h after injection): 2.44 ± 1.05 %ID/g
Spleen uptake ([1]; 0 h after injection): 1.15 ± 1.04 %ID/g
Stomach uptake ([1]; 0 h after injection): 1.80 ± 1.60 %ID/g
Bladder uptake ([1]; 1 h after injection): 1.47 ± 0.65 %ID/g
Blood uptake ([1]; 1 h after injection): 0.74 ± 0.30 %ID/g
Bone uptake ([1]; 1 h after injection): 1.03 ± 0.31 %ID/g
Brain uptake ([1]; 1 h after injection): 1.68 ± 0.67 %ID/g
Gallbladder uptake ([1]; 1 h after injection): 10.09 ± 6.60 %ID/g
Heart uptake ([1]; 1 h after injection): 2.25 ± 0.50 %ID/g
Kidney uptake ([1]; 1 h after injection): 3.07 ± 0.90 %ID/g
Large intestine uptake ([1]; 1 h after injection): 1.22 ± 0.34 %ID/g
Liver uptake ([1]; 1 h after injection): 7.76 ± 0.95 %ID/g
Lung uptake ([1]; 1 h after injection): 2.40 ± 1.01 %ID/g
Muscle uptake ([1]; 1 h after injection): 1.34 ± 0.40 %ID/g
Ratio LNCaP95/PC3 ([1]; 1 h after injection): 3.2
Ratio LNCaP95/blood ([1]; 1 h after injection): 3.58 ± 0.66 and 3.58
Ratio LNCaP95/kidney ([1]; 1 h after injection): 0.71
Ratio LNCaP95/liver ([1]; 1 h after injection): 0.29
Ratio LNCaP95/muscle ([1]; 1 h after injection): 1.72
Small intestine uptake ([1]; 1 h after injection): 7.43 ± 5.25 %ID/g
Spleen uptake ([1]; 1 h after injection): 0.96 ± 0.23 %ID/g
Stomach uptake ([1]; 1 h after injection): 1.73 ± 0.69 %ID/g
Bladder uptake ([1]; 2 h after injection): 1.13 ± 0.55 %ID/g
Blood uptake ([1]; 2 h after injection): 0.31 ± 0.08 %ID/g
Bone uptake ([1]; 2 h after injection): 0.51 ± 0.11 %ID/g
Brain uptake ([1]; 2 h after injection): 0.83 ± 0.21 %ID/g
Gallbladder uptake ([1]; 2 h after injection): 2.12 ± 3.60 %ID/g
Heart uptake ([1]; 2 h after injection): 1.04 ± 0.22 %ID/g
Kidney uptake ([1]; 2 h after injection): 1.43 ± 0.58 %ID/g
Large intestine uptake ([1]; 2 h after injection): 1.90 ± 2.02 %ID/g
Liver uptake ([1]; 2 h after injection): 4.81 ± 1.13 %ID/g
Lung uptake ([1]; 2 h after injection): 0.78 ± 0.19 %ID/g
Muscle uptake ([1]; 2 h after injection): 0.49 ± 0.18 %ID/g
Negative tumor (PC3) uptake ([1]; 2 h after injection): 0.35 ± 0.14 %ID/g
Positive tumor (LNCaP95) uptake ([1]; 2 h after injection): 1.13 ± 0.16 %ID/g
Ratio LNCaP95/PC3 ([1]; 2 h after injection): 3.3
Ratio LNCaP95/blood ([1]; 2 h after injection): 3.74
Ratio LNCaP95/kidney ([1]; 2 h after injection): 0.96
Ratio LNCaP95/liver ([1]; 2 h after injection): 0.24
Ratio LNCaP95/muscle ([1]; 2 h after injection): 2.51
Small intestine uptake ([1]; 2 h after injection): 6.29 ± 3.72 %ID/g
Spleen uptake ([1]; 2 h after injection): 0.71 ± 0.34 %ID/g
Stomach uptake ([1]; 2 h after injection): 0.68 ± 0.31 %ID/g
Bladder uptake ([1]; 4 h after injection): 0.52 ± 0.17 %ID/g
Blood uptake ([1]; 4 h after injection): 0.25 ± 0.07 %ID/g
Bone uptake ([1]; 4 h after injection): 0.39 ± 0.13 %ID/g
Brain uptake ([1]; 4 h after injection): 0.55 ± 0.18 %ID/g
Gallbladder uptake ([1]; 4 h after injection): 0.35 ± 0.03 %ID/g
Heart uptake ([1]; 4 h after injection): 0.88 ± 0.18 %ID/g
Kidney uptake ([1]; 4 h after injection): 1.05 ± 0.11 %ID/g
Large intestine uptake ([1]; 4 h after injection): 66 %ID/g and 66.53 ± 34.05 %ID/g
Liver uptake ([1]; 4 h after injection): 4.30 ± 0.68 %ID/g
Lung uptake ([1]; 4 h after injection): 0.75 ± 0.24 %ID/g
Muscle uptake ([1]; 4 h after injection): 0.45 ± 0.13 %ID/g
Negative tumor (PC3) uptake ([1]; 4 h after injection): 0.50 ± 0.17 %ID/g
Positive tumor (LNCaP95) uptake ([1]; 4 h after injection): 1.04 ± 0.14 %ID/g
Ratio LNCaP95/PC3 ([1]; 4 h after injection): 2.1
Ratio LNCaP95/blood ([1]; 4 h after injection): 4.38
Ratio LNCaP95/kidney ([1]; 4 h after injection): 1.00
Ratio LNCaP95/liver ([1]; 4 h after injection): 0.25
Ratio LNCaP95/muscle ([1]; 4 h after injection): 2.57
Small intestine uptake ([1]; 4 h after injection): 6.25 ± 2.18 %ID/g
Spleen uptake ([1]; 4 h after injection): 0.55 ± 0.24 %ID/g
Stomach uptake ([1]; 4 h after injection): 0.29 ± 0.19 %ID/g
Bladder uptake ([1]; 6 h after injection): 0.39 ± 0.21 %ID/g
Blood uptake ([1]; 6 h after injection): 0.17 ± 0.03 %ID/g
Bone uptake ([1]; 6 h after injection): 0.21 ± 0.08 %ID/g
Brain uptake ([1]; 6 h after injection): 0.39 ± 0.12 %ID/g
Gallbladder uptake ([1]; 6 h after injection): 9.64 ± 16.02 %ID/g
Heart uptake ([1]; 6 h after injection): 0.51 ± 0.13 %ID/g
Kidney uptake ([1]; 6 h after injection): 0.65 ± 0.24 %ID/g
Large intestine uptake ([1]; 6 h after injection): 47.42 ± 7.58 %ID/g
Liver uptake ([1]; 6 h after injection): 2.92 ± 0.94 %ID/g
Lung uptake ([1]; 6 h after injection): 0.50 ± 0.25 %ID/g
Muscle uptake ([1]; 6 h after injection): 0.24 ±0.09 %ID/g
Negative tumor (PC3) uptake ([1]; 6 h after injection): 0.49 ± 0.01 %ID/g
Positive tumor (LNCaP95) uptake ([1]; 6 h after injection): 0.52 ± 0.10 %ID/g
Ratio LNCaP95/PC3 ([1]; 6 h after injection): 1.1
Ratio LNCaP95/blood ([1]; 6 h after injection): 3.12
Ratio LNCaP95/kidney ([1]; 6 h after injection): 0.85
Ratio LNCaP95/liver ([1]; 6 h after injection): 0.21
Ratio LNCaP95/muscle ([1]; 6 h after injection): 2.56
Small intestine uptake ([1]; 6 h after injection): 2.37 ± 1.43 %ID/g
Spleen uptake ([1]; 6 h after injection): 0.30 ± 0.18 %ID/g
Stomach uptake ([1]; 6 h after injection): 0.19 ± 0.08 %ID/g
Bladder uptake ([1]; 12 h after injection): 0.09 ± 0.04 %ID/g
Blood uptake ([1]; 12 h after injection): 0.07 ± 0.04 %ID/g
Bone uptake ([1]; 12 h after injection): 0.07 ± 0.05 %ID/g
Brain uptake ([1]; 12 h after injection): 0.10 ± 0.05 %ID/g
Gallbladder uptake ([1]; 12 h after injection): 3.12 ± 0.81 %ID/g
Heart uptake ([1]; 12 h after injection): 0.17 ± 0.10 %ID/g
Kidney uptake ([1]; 12 h after injection): 0.16 ± 0.08 %ID/g
Large intestine uptake ([1]; 12 h after injection): 27.02 ± 14.89 %ID/g
Liver uptake ([1]; 12 h after injection): 1.06 ± 0.48 %ID/g
Lung uptake ([1]; 12 h after injection): 0.16 ± 0.08 %ID/g
Muscle uptake ([1]; 12 h after injection): 0.06 ± 0.03 %ID/g
Negative tumor (PC3) uptake ([1]; 12 h after injection): 0.13 ± 0.13 %ID/g
Positive tumor (LNCaP95) uptake ([1]; 12 h after injection): 0.15 ± 0.08 %ID/g
Ratio LNCaP95/PC3 ([1]; 12 h after injection): 1.2
Ratio LNCaP95/blood ([1]; 12 h after injection): 2.22
Ratio LNCaP95/kidney ([1]; 12 h after injection): 0.92
Ratio LNCaP95/liver ([1]; 12 h after injection): 0.14
Ratio LNCaP95/muscle ([1]; 12 h after injection): 2.98
Small intestine uptake ([1]; 12 h after injection): 2.14 ± 1.49 %ID/g
Spleen uptake ([1]; 12 h after injection): 0.07 ± 0.03 %ID/g
Stomach uptake ([1]; 12 h after injection): 1.78 ± 1.27 %ID/g
binding to recombinant full-length AR [2]: binds to recombinant full-length AR
LNCaP95 tumor uptake (SPECT) ([3]; 2 hours after injection): 1.09% ± 0.41%
thyroid uptake ([3]; blocking with EPI-002): 2.32% ± 0.33%
thyroid uptake ([3]; unblocked): approximately 2.31% ± 0.59%
Substance: [^123I]15-iodoEPI002 [^123I-EPI-002]
binding to endogenous AR in LNCaP95 cells (endogenous AR): binds covalently and specifically to AR
decrease in ^123I-EPI-002 accumulation in the LNCaP95 xenograft by blocking [4]: 74%
